Data published in patent publication US5565426A, “Peptide compounds active in cell adhesion processes” (Adir et Compagnie, priority 1992, dated 1996).
Non-standard residues stand in square brackets, D forms with d. Residues, ends and D or L forms follow the SMILES beside them. GABA = NCCCC(=O)O

Legend:
[1] = test system: formation of a blood clot in the mesenteric artery of the rat; assay: Experimental thrombosis in the mesenteric artery of the rat; assay type: in vivo; settings: venous infusion for 5 min
Experimental: The experiments were carried out on male rats (250 to 400 g). The animals are anaesthetised with pentobarbitone (50 mg/kg i.p.). A catheter is installed in the jugular vein in order to permit i.v. injections.
The preparation of the mesenteric artery and the induction of thrombosis are carried out in accordance with the method described by Bourgain et al. Adv. Exp. Med. Biol., 180, 635-649, (1984). A longitudinal incision is made in the abdomen and part of the intestine is exposed. Using a binocular magnifying device, a branch of the mesenteric artery from 200 to 500 μm in diameter is prepared. The adjacent vein is separated and the adipose tissues are removed; a 2 mm segment of artery is thus prepared. The animal is then installed under a microscope and the segment of the mesenteric artery is perfused with physiological solution (37° C.) at 5 ml/min. The segment can be observed for several hours. The images are recorded using a video camera and a magnetoscope.
After installation and stabilisation of the preparation, a platinum electrode is placed on each side of the arteriole wall using a micromanipulator. An endothelial lesion is then induced by applying for 60 seconds an electric current of 40 μA, the current being reversed every 5 seconds. […] Normally, no thrombus formation is observed on applying the electric current.
The formation of a clot is then induced by perfusion with ADP (adenosine diphosphate) for 2 minutes. The ADP is used at a final molarity of 300 μM. The clot forms and then, after 2 to 5 minutes, disappears by embolisation. The vessel then re-assumes a normal state; there is no spontaneous formation of a clot.
The effect of the products on the formation of thrombi was tested by treating the animals by venous infusion for 5 minutes. The infusion starts […] minute before perfusion with ADP.
The recorded images are analysed and the size of the clots is expressed in arbitrary surface values. The measurements are carried out at determined times during and after the perfusion of ADP. A comparison can therefore be made of the size of the clots in the control state and after the infusion of the product.

[2] = test system: mice (CD-1), collagen/adrenaline-induced thromboembolism; assay: Thromboembolism in mice (collagen + adrenaline i.v.); assay type: in vivo; settings: for dose from which formation of microthrombi in the lungs is inhibited: histological examination of lungs; for dose that protects half of the mice: i.v., injected with collagen + adrenaline, death or paralysis at 15 min
Experimental: Male mice (CD-1) weighing from 28 to 32 g are used for these experiments. The animals are maintained at from 26° to 28° C. for the 30 minutes preceding the experiment. A combination of collagen (150 μg/ml) and adrenaline (100 μmol/l) causes the mice to die by paralysis. Each mouse receives 0.1 ml of that combination, which gives a dose of 1.8 μg of adrenaline and 15 μg of collagen per mouse. The incidence of death or paralysis is observed 15 minutes after the intravenous injection (i.v.) of the combination (adrenaline+collagen) into the caudal vein. The peptides are injected at the same time as the combination of agonists. In the case of the tests relating to the duration of action, the mice are pre-treated with the peptides i.v. in a volume of 0.1 ml. A histological examination of the lungs is carried out in order to visualise the presence of microthrombi in the vessels of the microcirculation, which are attributable to the adrenaline-collagen combination. At the end of the experiment, the lungs are rapidly removed, fixed in formalin and then enclosed in paraffin. 5 μm sections are made and coloured with haematoxylin/eosin. The sections are examined and the presence or absence of microthrombi is noted. The X^2 test (Fischer) is used to determine whether there is a significant difference between the effects in mice that have received the peptides and those that have not.

Compound | Percentage inhibition of the formation of a blood clot in the mesenteric artery of the rat ([1]; 10 mg/kg/min) [%] | duration of action ([2]; dose of 1 mg, i.v. pre-treatment) | dose from which formation of microthrombi in the lungs is inhibited [2] [mg/mouse] | dose that protects half of the mice [2] [mg/mouse] | Percentage inhibition of the formation of a blood clot in the mesenteric artery of the rat ([1]; 2 mg/kg/min) [%] | Percentage inhibition of the formation of a blood clot in the mesenteric artery of the rat ([1]; 5 mg/kg/min) [%] | times more active than the reference substance (RGDW) ([2]; ratio of doses protecting half of the mice) [times]
N=C(N)NCCC[C@H](N)C(=O)NCC(=O)N[C@@H](CC(=O)O)C(=O)N[C@@H](Cc1c[nH]c2ccccc12)C(=O)O [H--Arg--Gly--Asp--Trp--OH, reference compound] (H-RGDW-OH) | 36 | less than 5 minutes | ≥ 1 | 0.3 | – | – | –
NCCCC[C@H](NC(=O)CCCN)C(=O)NCC(=O)N[C@@H](CC(=O)O)C(=O)N[C@@H](Cc1c[nH]c2ccccc12)C(=O)O [Example 12, H2 N--(CH2)3 --CO--Lys--Gly--Asp--Trp--OH] (H-[GABA]KGDW-OH) | 56 | – | – | – | 17 | 33 | –
N=C(N)NCCC[C@H](NC(=O)CCCN)C(=O)NCC(=O)N[C@@H](CC(=O)O)C(=O)N[C@@H](Cc1c[nH]c2ccccc12)C(=O)O [Example 11, H2 N--(CH2)3 --CO--Arg--Gly--Asp--Trp--OH] (H-[GABA]RGDW-OH) | – | – | ≥ 0.03 | 0.03 | – | – | 10
